Experimental data reported in US20090215171A1, “PELCAM-1-related molecules compositions kit of parts and associated methods of use” (The Johns Hopkins University, priority 2004, published 2009).

Tested on: HUVECs
Test: Measurement of intracellular free [Ca2+]i in HUVEC suspension (Fura-2/AM, thrombin stimulation)
Assay type: cell-based, human
Conditions: rest HUVEC; 16 h treatment; Ab 0.4 and 1.6 μg/mL, peptides 15 and 30 μg/mL; thrombin 1 U/ml
Experimental: HUVECs were cultured in EGM™ supplied with 10% of fetal bovine serum (FBS, dialyzed) to early confluence. HUVECs (passage number 3-4) were pre-incubated with and without TNF-α (5 ng/mL, 4 hour), next the cells were subjected to various doses of the JHS-7 Ab, accompanied by the pAb-C (c-terminal anti-PECAM-1 antibody) and a rabbit IgG (both served as controls). In addition, HUVECs were also incubated with a various doses of the JHS-7 peptide and a scrambled peptide served as its control. The treatments were carried out in EGM™ supplied with 2% of FBS for 16 hours. […] All above-mentioned peptides and antibodies were tested endotoxin free with an endotoxin detection kit (Sigma E-TOXATE®). Cell viability was determined with trypan blue exclusion assay after the incubation and no cytotoxic effect was observed under the Applicants' experimental conditions. HUVEC monolayers, following the incubation, were subjected to the following assays simultaneously: 1) monocyte TEM assay; 2) [Ca^2+]i measurement. […] Experimental results were calculated as average levels and plotted as % controls.
[Ca^2+]i measurement was conducted as described previously with slight modification. […] Fluorescence was recorded using a spectrofluorometer (Perkin Elmer LS-50B), with excitation and emission wavelengths of 340 and 505 nm, respectively. […]

scrambled peptide: control peptide of identical amino acid composition but different sequence TEDVLVPQNKSDNKATNNAFPNVSYVDEEDC (SEQ ID NO: 4) (Nonsense peptide with no known matches.)
thrombin stimulatable [Ca2+]i: no effect
